# Results: patent US20040242650A1, “Extended dosing regimen” (priority 2003, published 2004)
# Marks after values point to notes of the source that are not given here.
# How the values were obtained:
# [1] = system: Calu-6 lung subcutaneous flank xenografts; assay: Calu-6 flank xenograft model; format: in vivo, male nude mice; conditions: q.d x1; for Tumor Volume Day 38: mean ± SEM; for % ILS: median, time to 1 cc vs vehicle; for % T/C Day 38: treated vs vehicle
# Description: (§1) Efficacy of N-[2-[(4-hydroxyphenyl)amino]-3-pyridyl]-4-methoxybenzenesulfonamide was tested in Calu-6 NSCL, MDA-MB-468 breast and HT-29 colon carcinoma xenografts grown in nude mice. The objectives were determination of the efficacy of N-[2-[(4-hydroxyphenyl)amino]-3-pyridyl]-4-methoxybenzenesulfonamide as a single agent and in combination with cisplatin in the Calu-6 NSCL flank xenograft model; determination the efficacy of N-[2-[(4-hydroxyphenyl)amino]-3-pyridyl]-4-methoxybenzenesulfonamide as a single agent and in combination with docetaxel in the MDA-MB 468 breast flank xenograft model; determination of the efficacy of N-[2-[(4-hydroxyphenyl)amino]-3-pyridyl]-4-methoxybenzenesulfonamide as a single agent and in combination with 5-FU in the HT-29 colon flank xenograft model; and comparison the efficacy of N-[2-[(4-hydroxyphenyl)amino]-3-pyridyl]-4-methoxybenzenesulfonamide administered on 2 different schedules (q.d. vs b.i.d.) in the Calu-6 and HT-29 xenogaft model.
# (§2) Following inoculation of tumor cells, tumors were passaged three times in mice before using the fragments to generate single cell suspensions. Multiple animals were used as donors. Single cell suspensions were generated by homogenizing the minced tumor tissue in RPMI 1640 media. Cell suspensions were washed three times to remove debris and other foreign materials. Viable cells were counted by trypan blue exclusion technique using a hemocytometer. Mice were injected subcutaneously with 0.5 ml of the cell suspension containing 1×10^6 cells.
# Tumor cells were inoculated s.c. into male nude mice on day 0. On day 10, mice bearing established tumors were size matched at ˜233 mm^3 and placed into the following groups:
# (§3) N-[2-[(4-hydroxyphenyl)amino]-3-pyridyl]-4-methoxybenzenesulfonamide—100, and 75 mg/kg/day (p.o., q.d., 5 days on, 5 days off ×2)
# N-[2-[(4-hydroxyphenyl)amino]-3-pyridyl]-4-methoxybenzenesulfonamide—50 and 0 mg/kg/day (p.o., q.d. ×21 or p.o., b.i.d. ×21)
# Cisplaitn—20, 10, 8 and 0 mg/kg/day (ip, qd ×1)
# Combination Therapy—100/10, 75/10, 100/8 mg/kg/day (p.o., q.d., 5 days on, 5 days off ×2/ip, qd ×1), 50/10 mg/kg/day (p.o., q.d., ×21/ ip, qd ×1)
# [2] = system: HT-29 colon subcutaneous flank xenografts; assay: HT-29 flank xenograft model; format: in vivo, nude mice; conditions: q.d x5; for Tumor Volume Day 38: mean ± SEM; for % ILS: median, time to 1 cc vs vehicle; for % T/C Day 38: treated vs vehicle
# Description: as §1, §2
# (§4) Tumor cells derived from serially passaged tumor fragments were inoculated s.c. in female nude mice on day 0. On day 10, mice bearing established tumors were size matched at ˜236 mm^3 and placed into the following groups:
# 1. N-[2-[(4-hydroxyphenyl)amino]-3-pyridyl]-4-methoxybenzenesulfonamide—100, and 75 mg/kg/day (p.o., q.d., 5 days on, 5 days off ×2)
# 2. N-[2-[(4-hydroxyphenyl)amino]-3-pyridyl]-4-methoxybenzenesulfonamide—50 and 0 mg/kg/day (p.o., q.d. ×21 or p.o., b.i.d. ×21)
# Combination Therapy—100/30, 75/30, mg/kg/day (p.o., q.d., 5 days on, 5 days off ×2/ip, qd ×1), 50/10 mg/kg/day (p.o., q.d., ×21/ip, qd ×1).
# [3] = system: MDA-MB-468 breast subcutaneous flank xenografts; assay: MDA-MB-468 breast flank xenograft model; format: in vivo, female nude mice; conditions: q.d x1; for Tumor Volume Day 38: mean ± SEM; for % ILS: median, time to 1 cc vs vehicle; for % T/C Day 38: treated vs vehicle
# Description: as §1, §2
# as §4, with “Efficacy of N-[2-[(4-hydroxyphenyl)amino]-3-pyridyl]-4-methoxybenzenesulfonamide in the MDA-MB-468 Breast Flank Xenograft Model. Tumor” for “Tumor”, “˜231” for “˜236”
# as §3
# N-[2-[(4-hydroxyphenyl)amino]-3-pyridyl]-4-methoxybenzenesulfonamide—50 and 0 mg/kg/day (p.o., q.d. ×21)
# Docetaxel—40, 33.3, 16.7 and 0 mg/kg/day (i.v., qd ×1)
compound,measurement,setting,value
"N.N.[Cl][Pt][Cl] [Cisplatin, cisplatin, reference compound]",Tumor Volume Day 38,[1]; 8 mg/kg/day i.p.,1649 ± 67 mm^3
same,% ILS,[1]; 8 mg/kg/day i.p.,29*** %
same,% T/C Day 38,[1]; 8 mg/kg/day i.p.,63*** %
same,Tumor Volume Day 38,[1]; 10 mg/kg/day i.p.,914 ± 49 mm^3
same,% ILS,[1]; 10 mg/kg/day i.p.,71*** %
same,% T/C Day 38,[1]; 10 mg/kg/day i.p.,35*** %
same,Tumor Volume Day 38,[1]; 20 mg/kg/day i.p.,1472 ± 75 mm^3
same,% ILS,[1]; 20 mg/kg/day i.p.,58*** %
same,% T/C Day 38,[1]; 20 mg/kg/day i.p.,56*** %
"O=c1[nH]cc(F)c(=O)[nH]1 [5-FU, 5-fluorouracil, reference compound]",Tumor Volume Day 38,[2]; 20 mg/kg/day i.p.,1413 ± 80 mm^3
same,% ILS,[2]; 20 mg/kg/day i.p.,25*** %
same,% T/C Day 38,[2]; 20 mg/kg/day i.p.,59*** %
same,Tumor Volume Day 38,[2]; 30 mg/kg/day i.p.,525 ± 35 mm^3
same,% ILS,[2]; 30 mg/kg/day i.p.,75*** %
same,% T/C Day 38,[2]; 30 mg/kg/day i.p.,22*** %
same,Tumor Volume Day 38,[2]; 40 mg/kg/day i.p.,973 ± 45 mm^3
same,% ILS,[2]; 40 mg/kg/day i.p.,50*** %
same,% T/C Day 38,[2]; 40 mg/kg/day i.p.,41*** %
"CC(=O)O[C@@]12CO[C@@H]1C[C@H](O)[C@@]1(C)C(=O)[C@H](O)C3=C(C)[C@@H](OC(=O)[C@H](O)[C@@H](NC(=O)OC(C)(C)C)c4ccccc4)C[C@@](O)([C@@H](OC(=O)c4ccccc4)[C@H]21)C3(C)C [Docetaxel, docetaxel, reference compound]",Tumor Volume Day 38,[3]; 16.7 mg/kg/day i.v.,1909 ± 101 mm^3
same,% ILS,[3]; 16.7 mg/kg/day i.v.,26*** %
same,% T/C Day 38,[3]; 16.7 mg/kg/day i.v.,68*** %
same,Tumor Volume Day 38,[3]; 33.3 mg/kg/day i.v.,551 ± 31 mm^3
same,% ILS,[3]; 33.3 mg/kg/day i.v.,67*** %
same,% T/C Day 38,[3]; 33.3 mg/kg/day i.v.,19*** %
same,Tumor Volume Day 38,[3]; 40 mg/kg/day i.v.,1008 ± 58 mm^3
same,% ILS,[3]; 40 mg/kg/day i.v.,52*** %
same,% T/C Day 38,[3]; 40 mg/kg/day i.v.,36*** %
